# Measurements published in patent US20090221549A1, “ANTIHYPERTENSIVE THERAPY” (Gilead Colorado, Inc., priority 2006, published 2009).
# Tests used:
# [1] = system: patients with resistant hypertension; test: Urinary albumin to creatinine ratio (renal function); format: in vivo, human; conditions: for Albumin to creatinine ratio, % Change from baseline, Mean: week 10
# Experimental: (§1) Co-primary efficacy endpoints were the changes from baseline through weeks 8 and 10 (i.e., doses of 150 and 300 mg) in trough sitting SBP. Blood pressure was measured at every study visit (baseline and weeks 2, 4, 6, 8 and 10) using standard sphygmomanometry. Secondary variables included 24-hour SBP as measured by ambulatory blood pressure monitoring (ABPM), percentage of patients who achieved SBP goal, trough sitting DBP, and urinary albumin to creatinine ratio. Ambulatory blood pressure monitoring was recorded once before randomization and repeated during the 24 hours immediately preceding the week 10 study visit. Urine samples for determination of albumin to creatinine ratio were collected at screening, baseline and week 10.
# [2] = system: patients with resistant hypertension; test: Trough/peak sitting blood pressure by standard sphygmomanometry, randomized placebo-controlled dose-titration study; format: in vivo, human; conditions: for Percent of patients achieving SBP goal, Responders, n (%): n = 76
# Experimental: In this randomized, double-blind, placebo-controlled, dose-titration study, 115 patients with resistant hypertension as defined by JNC 7 guidelines were randomized 2:1 to receive escalating doses of darusentan (10, 50, 100, 150 and 300 mg) or placebo once daily for 10 weeks. Darusentan dose was increased every 2 weeks.
# Patients (35 to 85 years of age) with resistant hypertension as defined by the JNC 7 guidelines and who were treated with and adhered to full doses of JNC 7 recommended antihypertensives, including a diuretic and two or more antihypertensive medications from different drug classes, defined as (a) ACE inhibitors and angiotensin II receptor blockers, (b) beta-adrenergic receptor blockers, and (c) calcium channel blockers, were eligible to participate in the study. Patients also were required to have an estimated glomerular filtration rate (GFR) ≧30 mL/min/1.73 m^2 during the screening period. Women of childbearing potential were required to have a negative serum pregnancy test at the screening visit and a negative urine pregnancy test at baseline, and they must have agreed to use a reliable double-barrier method of contraception throughout the study and for at least 4 weeks after the last study visit. Patients with an average sitting SBP ≧180 mmHg, […], hemoglobin A1c >10%, hemoglobin concentration <10 g/dL, hematocrit <30%, serum thyroid stimulating hormone concentration >1.5× the upper limit of normal (ULN), or serum alanine aminotransferase (ALT) or aspartate aminotransferase (AST)>2×ULN during the screening period were excluded from the study. […] All patients provided written informed consent.
# (§2) In this randomized, double-blind, placebo-controlled, dose-titration study, patients were randomized 2:1 to receive escalating doses of darusentan or placebo once daily in the morning for 10 weeks after completing a 2-week placebo run-in period (FIG. 1). Darusentan was initiated at a dose of 10 mg/day and escalated every 2 weeks at doses of 50, 100 and 150 mg/day until reaching a maximum of 300 mg/day. […] Patients were withdrawn from the study if a subsequent dose reduction was required. After completion of the 10-week treatment period, patients were withdrawn from study medication over a maximum of 2 weeks. This study was approved by an Institutional Review Board/Independent Ethics Committee and conducted in accordance with the principles of Good Clinical Practices and the revised Declaration of Helsinki.
# as §1
# A nonlinear mixed effect model was used for the analysis of change in blood pressure, with comorbidity status as a covariate. This model used all observed blood pressure measurements with no imputation for missing values. Linear contrast statements were used to test the slope through a given time point to test the effect of the dose administered on that week. Estimates of treatment effect were obtained via least square means. Response rates were compared with logistic regression models at each blood pressure measurement with comorbidity status as a covariate; missing values were imputed with last observation carried forward for these models. Safety summaries include all patients who received ≧1 dose of blinded study medication. […]
# [3] = system: patients with moderate hypertension; conditions: 10 to 100 mg/day, no other antihypertensive drugs; cited from earlier work
# [4] = system: patients with resistant hypertension; test: 24-hour ambulatory blood pressure monitoring (ABPM) at week 10; format: in vivo, human
# Experimental: as §2, §1
# A nonlinear mixed effect model was used for the analysis of change in blood pressure, with comorbidity status as a covariate. This model used all observed blood pressure measurements with no imputation for missing values. Linear contrast statements were used to test the slope through a given time point to test the effect of the dose administered on that week. Estimates of treatment effect were obtained via least square means. […]
# [5] = system: patients with resistant hypertension; test: Safety and tolerability assessments in the clinical study; format: in vivo, human; conditions: for Treatment-emergent adverse events, Patients, %: n = 76
# Experimental: as §2
# Physical examinations, vital sign measurements, clinical chemistry and hematologic laboratory tests, and electrocardiography were performed at the screening visit and periodically throughout the study. Blood samples were obtained at baseline and at weeks 4 and 10 during study drug treatment to monitor liver function. Additional blood samples were drawn from male patients at baseline and week 10 to assess follicle stimulating hormone, inhibin B, luteinizing hormone and testosterone levels. Male fertility was assessed by analysis of semen samples obtained within 2 weeks before baseline and within 2 weeks before week 10. Adverse events were monitored throughout the study.
# A nonlinear mixed effect model was used for the analysis of change in blood pressure, with comorbidity status as a covariate. This model used all observed blood pressure measurements with no imputation for missing values. Linear contrast statements were used to test the slope through a given time point to test the effect of the dose administered on that week. Estimates of treatment effect were obtained via least square means. Response rates were compared with logistic regression models at each blood pressure measurement with comorbidity status as a covariate; missing values were imputed with last observation carried forward for these models. Safety summaries include all patients who received ≧1 dose of blinded study medication.
compound,measurement,setting,value
"COc1cc(OC)nc(O[C@H](C(=O)O)C(OC)(c2ccccc2)c2ccccc2)n1 [Darusentan, (+)-(S)-2-[(4,6-dimethoxy-2-pyrimidinyl)oxy]-3-methoxy-3,3-diphenylpropionic acid]","Geometric mean albumin to creatinine ratio, Week 10","[1]; All observed patients, n 65, baseline 12.6",9.4 mg/g
same,"Albumin to creatinine ratio, % Change from baseline, Mean",[1]; All observed patients,−25.3%
same,"Geometric mean albumin to creatinine ratio, Week 10","[1]; Baseline ratio >30 mg/g, n 12, baseline 145.4",73.6 mg/g
same,"Albumin to creatinine ratio, % Change from baseline, Mean",[1]; Baseline ratio >30 mg/g,−49.4%
same,"Geometric mean albumin to creatinine ratio, Week 10","[1]; Baseline ratio ≦30 mg/g, n 53, baseline 7.2",5.9 mg/g
same,"Albumin to creatinine ratio, % Change from baseline, Mean",[1]; Baseline ratio ≦30 mg/g,−18.4%
same,"improvements in trough sitting SBP and DBP, dose relation","[2]; 10 to 300 mg once daily, titrated every 2 weeks",dose dependent
same,"Percent of patients achieving SBP goal, Responders, n (%)",[2]; Week 2 (10 mg),23 (30.3) n (%)
same,"Percent of patients achieving SBP goal, Responders, n (%)",[2]; Week 4 (50 mg),36 (47.4) n (%)
same,"Percent of patients achieving SBP goal, Responders, n (%)",[2]; Week 6 (100 mg),34 (44.7) n (%)
same,"Percent of patients achieving SBP goal, Responders, n (%)",[2]; Week 8 (150 mg),32 (42.1) n (%)
same,"Percent of patients achieving SBP goal, Responders, n (%)",[2]; Week 10 (300 mg),37 (48.7) n (%)
same,patients achieving SBP goal (JNC 7),"[2]; end of treatment (week 10), placebo 28%",49%
same,effect on SBP and DBP by comparison with placebo,[3],significantly reduce
same,placebo-adjusted reduction in mean 24-hour systolic ABP,[4]; 300 mg,9.2±2.2 mmHg
same,decrease in day-time SBP (ABP),[4]; placebo 2.2±2.4 mmHg,10.9±1.4 mmHg
same,decrease in night-time SBP (ABP),[4]; placebo 3.8±2.7 mmHg,11.9±1.6 mmHg
same,patients with elevations in ALT or AST >2×ULN,[5]; 10-week treatment,no
same,"Treatment-emergent adverse events, Patients, %",[5]; Arthralgia,(3) %
same,"Treatment-emergent adverse events, Patients, %",[5]; Diarrhea,(1) %
same,"Treatment-emergent adverse events, Patients, %",[5]; Dizziness,(7) %
same,"Treatment-emergent adverse events, Patients, %",[5]; Gastroenteritis,(5) %
same,"Treatment-emergent adverse events, Patients, %",[5]; Nasopharyngitis,(7) %
same,"Treatment-emergent adverse events, Patients, %",[5]; Sinusitis,(8) %
same,"Treatment-emergent adverse events, Patients, %",[5]; Upper respiratory tract infection,(5) %
same,patients with decrease in hematocrit reported as adverse event,[5]; all events mild,2 patients
same,patients with decrease in hemoglobin reported as adverse event,[5]; all events mild,2 patients
same,cases of severe peripheral edema,[5]; darusentan group,one case
same,serious adverse events considered related to study medication,[5]; darusentan group,None and no drug-related serious adverse events
